In the assay the target is T1, Human MTAP (Homo sapiens, UniProt Q13126).
T1 construct: six-histidine tag (His6) (N); made in house; host or cells: E. coli BL21 DE3
T1 sequence (Q13126 1-283): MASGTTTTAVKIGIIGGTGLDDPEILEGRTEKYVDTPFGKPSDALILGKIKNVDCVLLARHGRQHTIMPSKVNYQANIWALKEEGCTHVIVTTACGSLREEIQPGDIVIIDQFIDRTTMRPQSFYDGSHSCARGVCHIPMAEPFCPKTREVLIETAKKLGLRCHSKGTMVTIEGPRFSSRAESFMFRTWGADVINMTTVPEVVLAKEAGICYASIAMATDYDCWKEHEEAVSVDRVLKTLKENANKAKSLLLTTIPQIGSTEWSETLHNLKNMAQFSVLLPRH
Briefly: MTAP substrate assay, coupled spectrophotometric (adenine, xanthine oxidase). Type of assay: biochemical. To be noted: 2 nM MTAP; for activity at 50 µM: 10 min, compound 50 uM, relative to MTA at 50 uM, read-out: MT-A—50: initial velocity as a percentage of the initial velocity with MTA as substrate; for MT-A—10: initial velocity as a percentage of the initial velocity with MTA as substrate: compound 10 uM, relative to MTA at 10 uM. Summed up: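 Detection was xanthine oxidase-coupled (0.8 units/ml), reading adenine-derived absorbance at 305 nm over 10 min in potassium phosphate/DTT buffer at 37° C, with N-His6 enzyme purified from E. coli.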

The structures appear in SMILES notation.

Consider `Nc1ncnc2c1ncn2[C@@H]1O[C@H](CSc2nc(-c3ccccc3)cs2)[C@@H](O)[C@H]1O` [2(G)(138), (2R, 3R, 4S, 5S)-2-(6-amino-9H-purin-9-yl)-5-{[(4-phenyl-1,3-thiazol-2-yl)thio]methyl}-tetrahydrofuran-3,4-diol], for which the activity at 50 µM worked out at 12.5% and the “MT-A—10: initial velocity as a percentage of the initial velocity with MTA as substrate” value is 9%.
For the compound `CCCCOC(=O)CCSC[C@H]1O[C@@H](n2cnc3c(N)ncnc32)[C@H](O)[C@@H]1O` [2(G)(139), Butyl 3-({[(2S, 3S, 4R, 5R)-5-(6-amino-9H-purin-9-yl)-dihydroxytetrahydro-furan-2-yl]methyl}thio)-propanoate], the activity at 50 µM stood at 30% and the “MT-A—10: initial velocity as a percentage of the initial velocity with MTA as substrate” value was determined as 26.5%.
With `CCOC(=O)C(C)SC[C@H]1O[C@@H](n2cnc3c(N)ncnc32)[C@H](O)[C@@H]1O` (stereo partly drawn) [2(G)(140), Ethyl 2-({[(2S, 3S, 4R, 5R)-5-(6-amino-9H-purin-9-yl)-3,4-dihydroxytetra-hydrofuran-2-yl]methyl}-thio)-propanoate], the activity at 50 µM turned out to be 7.5% and the “MT-A—10: initial velocity as a percentage of the initial velocity with MTA as substrate” value is given as 3%.
`CC(O)CSC[C@H]1O[C@@H](n2cnc3c(N)ncnc32)[C@H](O)[C@@H]1O` (stereo partly drawn) [2(G)(141), (2R, 3R, 4S, 5S)-2-(6-amino-9H-purin-9-yl)-5-{[(2-hydroxypropyl)-thio]methyl}tetrahydro-furan-3,4-diol]: the activity at 50 µM is 27% and the “MT-A—10: initial velocity as a percentage of the initial velocity with MTA as substrate” value is 10%.
As to `CCCCCCCCSC[C@H]1O[C@@H](n2cnc3c(N)ncnc32)[C@H](O)[C@@H]1O` [2(G)(142), (2R, 3R, 4S, 5S)-2-(6-amino-9H-purin-9-yl)-5-[(octylthio)methyl]tetra-hydrofuran-3,4-diol], the activity at 50 µM turned out to be 58% and the “MT-A—10: initial velocity as a percentage of the initial velocity with MTA as substrate” value worked out at 1.5%.
As to `CC(O)C(C)SC[C@H]1O[C@@H](n2cnc3c(N)ncnc32)[C@H](O)[C@@H]1O` (stereo partly drawn) [2(G)(144), (2R, 3R, 4S, 5S)-2-(6-amino-9H-purin-9-yl)-5-{[(2-hydroxy-1-methyl-propyl)thio]methyl}tetra-hydrofuran-3,4-diol], the activity at 50 µM came out at 7.5% and the “MT-A—10: initial velocity as a percentage of the initial velocity with MTA as substrate” value is 18%.
Consider `Nc1ncnc2c1ncn2[C@@H]1O[C@H](CSCc2ccc(Cl)c(Cl)c2)[C@@H](O)[C@H]1O` [2(G)(145), (2R, 3R, 4S, 5S)-2-(6-amino-9H-purin-9-yl)-5-{[(3,4-dichlorobenzyl)-thio]methyl}tetrahydro-furan-3,4-diol], for which the activity at 50 µM was 16% and the “MT-A—10: initial velocity as a percentage of the initial velocity with MTA as substrate” value turned out to be 3.5%.
The like results for `CC(C)c1ccccc1SC[C@H]1O[C@@H](n2cnc3c(N)ncnc32)[C@H](O)[C@@H]1O` [2(G)(146), (2R, 3R, 4S, 5S)-2-(6-amino-9H-purin-9-yl)-5-{[(2-isopropylphenyl)-thio]methyl}tetrahydro-furan-3,4-diol] were, in that order, 2% and 28%.
For `Nc1ncnc2c1ncn2[C@@H]1O[C@H](CSc2cccc(F)c2)[C@@H](O)[C@H]1O` [2(G)(147), (2R, 3R, 4S, 5S)-2-(6-amino-9H-purin-9-yl)-5-{[(3-fluorophenyl)-thio]methyl}tetrahydro-furan-3,4-diol], the activity at 50 µM stood at 25.5% and the “MT-A—10: initial velocity as a percentage of the initial velocity with MTA as substrate” value is 18.5%.
In the case of `Cc1cc(C)cc(SC[C@H]2O[C@@H](n3cnc4c(N)ncnc43)[C@H](O)[C@@H]2O)c1` [2(G)(148), (2R, 3R, 4S, 5S)-2-(6-amino-9H-purin-9-yl)-5-{[(3,5-dimethylphenyl)-thio]methyl}tetrahydro-furan-3,4-diol], the activity at 50 µM came to 15% and the “MT-A—10: initial velocity as a percentage of the initial velocity with MTA as substrate” value was 2%.
For `Cc1ccc(SC[C@H]2O[C@@H](n3cnc4c(N)ncnc43)[C@H](O)[C@@H]2O)c(C)c1` [2(G)(149), (2R, 3R, 4S, 5S)-2-(6-amino-9H-purin-9-yl)-5-{[(2,4-dimethylphenyl)-thio]methyl}tetrahydro-furan-3,4-diol] the same measures were 2.5% and 35.5%.
On to `Cc1ccc(SC[C@H]2O[C@@H](n3cnc4c(N)ncnc43)[C@H](O)[C@@H]2O)cc1C` [2(G)(150), (2R, 3R, 4S, 5S)-2-(6-amino-9H-purin-9-yl)-5-{[(3,4-dimethylphenyl)-thio]methyl}tetrahydro-furan-3,4-diol], for which the activity at 50 µM was 33.5% and the “MT-A—10: initial velocity as a percentage of the initial velocity with MTA as substrate” value came out at 2%.
Turning to `Nc1ncnc2c1ncn2[C@@H]1O[C@H](CSc2cccc(Cl)c2Cl)[C@@H](O)[C@H]1O` [2(G)(151), (2R, 3R, 4S, 5S)-2-(6-amino-9H-purin-9-yl)-5-{[(2,3-dichlorophenyl)-thio]methyl}tetrahydro-furan-3,4-diol], the activity at 50 µM was found to be 2% and the “MT-A—10: initial velocity as a percentage of the initial velocity with MTA as substrate” value is reported as 13.5%.
For `CSc1nsc(SC[C@H]2O[C@@H](n3cnc4c(N)ncnc43)[C@H](O)[C@@H]2O)n1` [2(G)(152), (2R, 3R, 4S, 5S)-2-(6-amino-9H-purin-9-yl)-5-({[3-(methylthio)-1,2,4-thiodiazol-5-yl)-thio}methyl)tetrahydro-furan-3,4-diol] the same measures were 17% and 19.5%.
Consider `Nc1ncnc2c1ncn2[C@@H]1O[C@H](CSc2nc3ccc(Cl)cc3o2)[C@@H](O)[C@H]1O` [2(G)(153), (2R, 3R, 4S, 5S)-2-(6-amino-9H-purin-9-yl)-5-{[(6-chloro-1,3-benz-oxazol-2-yl)thio]methyl}tetrahydrofuran-3,4-diol], for which the activity at 50 µM was 22.5% and the “MT-A—10: initial velocity as a percentage of the initial velocity with MTA as substrate” value is recorded as 10%.
Turning to `Cc1cc(C)nc(SC[C@H]2O[C@@H](n3cnc4c(N)ncnc43)[C@H](O)[C@@H]2O)n1` [2(G)(154), (2R, 3R, 4S, 5S)-2-(6-amino-9H-purin-9-yl)-5-{[(4,6-dimethyl-pyrimidin-2-yl)thio]methyl}tetrahydrofuran-3,4-diol], the activity at 50 µM was 26% and the “MT-A—10: initial velocity as a percentage of the initial velocity with MTA as substrate” value came to 39%.
Regarding `Cc1cnc(SC[C@H]2O[C@@H](n3cnc4c(N)ncnc43)[C@H](O)[C@@H]2O)nc1O` [2(G)(155), (2R, 3R, 4S, 5S)-2-(6-amino-9H-purin-9-yl)-5-{[(4-hydroxy-5-methyl-pyrimidin-2-yl)thio]-methyl}tetrahydrofuran-3,4-diol], the activity at 50 µM is 39% and the “MT-A—10: initial velocity as a percentage of the initial velocity with MTA as substrate” value was 22.5%.
In the case of `CC(SC[C@H]1O[C@@H](n2cnc3c(N)ncnc32)[C@H](O)[C@@H]1O)c1ccccc1` (stereo partly drawn) [2(G)(156), (2R, 3R, 4S, 5S)-2-(6-amino-9H-purin-9-yl)-5-{[(1-phenylethyl)thio]-methyl}tetrahydrofuran-3,4-diol], the activity at 50 µM turned out to be 33% and the “MT-A—10: initial velocity as a percentage of the initial velocity with MTA as substrate” value turned out to be 6%.
On to `Nc1ncnc2c1ncn2[C@@H]1O[C@H](CSc2ccccc2CO)[C@@H](O)[C@H]1O` [2(G)(157), (2R, 3R, 4S, 5S)-2-(6-amino-9H-purin-9-yl)-5-({[2-(hydroxymethyl)-phenyl]thio}methyl)tetra-hydrofuran-3,4-diol], for which the activity at 50 µM turned out to be 15.5% and the “MT-A—10: initial velocity as a percentage of the initial velocity with MTA as substrate” value came to 32.5%.
The like results for `Cc1nc(SC[C@H]2O[C@@H](n3cnc4c(N)ncnc43)[C@H](O)[C@@H]2O)nc(O)c1C` [2(G)(158), (2R, 3R, 4S, 5S)-2-(6-amino-9H-purin-9-yl)-5-{[(4-hydroxy-5,6-dimethylpyrimidin-2-yl)-thio]methyl}tetrahydro-furan-3,4-diol] were, in that order, 43.5% and 7%.
For `NC(=O)CSC[C@H]1O[C@@H](n2cnc3c(N)ncnc32)[C@H](O)[C@@H]1O` [2(G)(159), 2-({[(2S, 3S, 4R, 5R)-5-(6-amino-9H-purin-9-yl)-3,4-dihydroxytetrahydro-furan-2-yl)methyl}thio)-acetamide], the activity at 50 µM is 28% and the “MT-A—10: initial velocity as a percentage of the initial velocity with MTA as substrate” value came to 7.5%.
As for `Nc1ncnc2c1ncn2[C@@H]1O[C@H](CSc2nccn2Cc2ccccc2)[C@@H](O)[C@H]1O` [2(G)(160), (2R, 3R, 4S, 5S)-2-(6-amino-9H-purin-9-yl)-5-{[(1-benzyl-1H-imidazol-2-yl)thio]methyl}tetra-hydrofuran-3,4-diol], the activity at 50 µM was determined as 17% and the “MT-A—10: initial velocity as a percentage of the initial velocity with MTA as substrate” value came out at 12%.
On to `CNC(=O)c1ccccc1SC[C@H]1O[C@@H](n2cnc3c(N)ncnc32)[C@H](O)[C@@H]1O` [2(G)(161), 2-({[(2S, 3S, 4R, 5R)-5-(6-amino-9H-purin-9-yl)-3,4-dihydroxytetrahydro-furan-2-yl]methyl}thio)-N-methylbenzamide], for which the activity at 50 µM was 28% and the “MT-A—10: initial velocity as a percentage of the initial velocity with MTA as substrate” value is 14.5%.
For `CCCc1cc(O)nc(SC[C@H]2O[C@@H](n3cnc4c(N)ncnc43)[C@H](O)[C@@H]2O)n1` [2(G)(162), (2R, 3R, 4S, 5S)-2-(6-amino-9H-purin-9-yl)-5-{[(4-hydroxy-6-propylpyrimidin-2-yl)-thio]methyl}tetrahydro-furan-3,4-diol] the same measures were 39.5% and 29%.

For the origin of these results see patent US20040043959A1, “Combination therapies for treating methylthioadenosine phosphorylase deficient cells” (priority 2002, published 2004).
